# Experimental data: ChEMBL document CHEMBL5241120, “Insights into the medicinal chemistry of heterocycles integrated with a pyrazolo[1,5-a]pyrimidine scaffold” (RSC Med Chem, 2022)
# pIC50: −log10 of the molar value.
# Assays:
# Escherichia coli = experiment: Antibacterial activity against Escherichia coli assessed as zone of inhibition; assay type: functional
# Staphylococcus aureus = experiment: Antibacterial activity against Staphylococcus aureus assessed as zone of inhibition; assay type: functional
# Bacillus subtilis = experiment: Antibacterial activity against Bacillus subtilis assessed as zone of inhibition; assay type: functional
# HepG2 = experiment: Cytotoxicity against human HepG2 cells by MTT assay; assay type: functional, cell-based
# MCF7 = experiment: Cytotoxicity against human MCF7 cells by MTT assay; assay type: functional, cell-based
# Pseudomonas aeruginosa = experiment: Antibacterial activity against Pseudomonas aeruginosa assessed as zone of inhibition; assay type: functional
# [1] = system: Panel NCI-60 (60 carcinoma cell lines); experiment: Cytotoxicity against human Panel NCI-60 (60 carcinoma cell lines); assay type: functional; design: concentration or dose not given beside the values
# HeLa = experiment: Cytotoxicity against human HeLa cells by MTT assay; assay type: functional, cell-based
compound,measurement,setting,value
O=C(Nc1ccccc1)c1cnn2c(-c3ccccc3)ccnc12,inhibition zone (IZ),Escherichia coli,10 mm
same,inhibition zone (IZ),Staphylococcus aureus,10 mm
Cc1cc(-n2ncc3c(=O)n(-c4ccccc4)cnc32)n2ncc(C#N)c2n1,inhibition zone (IZ),Escherichia coli,13.1 mm
same,inhibition zone (IZ),Bacillus subtilis,14.3 mm
COc1ccc(-c2ccnc3c(C(N)=O)c(Nc4ccc(Cl)cc4)nn23)cc1,pIC50,HepG2,4.14
CC1(C)CC(=O)c2cnc3c(C(N)=O)c(Nc4ccccc4)nn3c2C1,pIC50,MCF7,4.18
same,pIC50,HepG2,4.11
NC(=O)c1c(Nc2ccccc2)nn2c(-c3ccc(F)cc3)ccnc12,pIC50,HepG2,4.14
O=C(Nc1ccccc1)c1cnn2c(-c3ccc([N+](=O)[O-])cc3)ccnc12,inhibition zone (IZ),Escherichia coli,11 mm
NC(=O)c1c(Nc2ccccc2)nn2c3c(cnc12)CCC3,inhibition zone (IZ),Bacillus subtilis,9 mm
same,inhibition zone (IZ),Pseudomonas aeruginosa,9 mm
NC(=O)c1c(Nc2ccc(Br)cc2)nn2c3c(cnc12)CCC3,inhibition zone (IZ),Escherichia coli,11 mm
same,inhibition zone (IZ),Bacillus subtilis,12 mm
same,inhibition zone (IZ),Pseudomonas aeruginosa,9 mm
COc1ccc(Nc2nn3c(N)c(C#N)c(-c4cccc(C)c4)nc3c2C(=O)Nc2ccccc2)cc1,inhibition zone (IZ),Escherichia coli,16 mm
same,inhibition zone (IZ),Bacillus subtilis,20 mm
CCOC(=O)c1cnn(-c2cc(C)nc3c(C#N)cnn23)c1N,inhibition zone (IZ),Escherichia coli,15.4 mm
same,inhibition zone (IZ),Bacillus subtilis,17.1 mm
NC(=O)c1c(Nc2ccc(Cl)cc2)nn2c(-c3ccc(Cl)cc3)ccnc12,pIC50,HepG2,4.14
NC(=O)c1c(Nc2ccc(Cl)cc2)nn2c(-c3ccccc3)ccnc12,pIC50,HepG2,4.14
COc1ccc(Nc2nn3c(-c4ccc(Br)cc4)ccnc3c2C(N)=O)cc1,pIC50,MCF7,4.19
same,pIC50,HepG2,4.15
NC(=O)c1c(Nc2ccc(Br)cc2)nn2c3c(cnc12)CCCC3,inhibition zone (IZ),Bacillus subtilis,9 mm
same,inhibition zone (IZ),Pseudomonas aeruginosa,9 mm
COc1ccc(Nc2nn3c(O)cc(-c4ccccc4)nc3c2C(=O)Nc2ccc(C)cc2)c(OC)c1,Activity,[1],0.5%
CNc1nn2c(-c3ccccc3)ccnc2c1C(N)=O,inhibition zone (IZ),Bacillus subtilis,9 mm
same,inhibition zone (IZ),Pseudomonas aeruginosa,9 mm
COc1ccc(Nc2nn3c(N)c(C#N)c(-c4cc(OC)ccc4OC)nc3c2C(=O)Nc2ccc(Cl)cc2)cc1,inhibition zone (IZ),Escherichia coli,16 mm
same,inhibition zone (IZ),Bacillus subtilis,21 mm
COc1ccc(Nc2nn3c(O)cc(C)nc3c2C(=O)Nc2ccccc2)c(OC)c1,Activity,[1],0.5%
Cc1ccc(Nc2nn3c(-c4ccc(Br)cc4)ccnc3c2C(N)=O)cc1,pIC50,HepG2,4.14
COc1ccc(Nc2nn3c(C)cc(C)nc3c2C(N)=O)c(OC)c1,Activity,[1],0.5%
COc1ccc(Nc2nn3c(O)cc(C)nc3c2C(=O)Nc2ccc(C)cc2)c(OC)c1,Activity,[1],0.5%
O=C(Nc1ccccc1-c1ccnc2c(C(=O)NCc3ccc(F)cc3)cnn12)c1ccc(Cl)c(Cl)c1,pIC50,HeLa,5.02
COc1ccc(Nc2nn3c(-c4ccccc4)cc(-c4ccccc4)nc3c2C(=O)Nc2ccc(C)cc2)c(OC)c1,Activity,[1],0.5%
CCOC(=O)c1cnc2c(C(=O)Nc3ccccc3)cnn2c1C,inhibition zone (IZ),Escherichia coli,10 mm
COc1ccc(NC(=O)c2c(Nc3ccc(OC)cc3OC)nn3c(O)cc(-c4ccccc4)nc23)c(OC)c1,Activity,[1],0.5%
CCNc1nn2c(-c3ccc(Br)cc3)ccnc2c1C(N)=O,inhibition zone (IZ),Staphylococcus aureus,9 mm
O=C(Nc1ccccc1-c1ccnc2c(C(=O)NCc3ccccc3Cl)cnn12)c1ccc(Cl)c(Cl)c1,pIC50,HeLa,5.04
COc1ccc(NC(=O)c2c(Nc3ccc(OC)cc3OC)nn3c(O)cc(C)nc23)c(OC)c1,Activity,[1],0.5%
COc1ccc(Nc2nn3c(O)cc(-c4ccccc4)nc3c2C(=O)Nc2ccccc2)c(OC)c1,Activity,[1],0.5%
COc1ccc(-c2cc(C(=O)N3CCN(C(=O)c4ccccc4NCc4cccc5c4OCO5)CC3)nc3cc(-c4ccccc4)nn23)cc1,pIC50,HeLa,5.71
COc1ccc(NC(=O)c2c(Nc3ccc(OC)cc3OC)nn3c(C)cc(C)nc23)c(OC)c1,Activity,[1],0.5%
NC(=O)c1c(Nc2ccc(Cl)cc2)nn2c(-c3ccc(F)cc3)ccnc12,pIC50,HepG2,4.14
NC(=O)c1c(Nc2ccc(Br)cc2)nn2c(-c3ccc(Cl)cc3)ccnc12,inhibition zone (IZ),Staphylococcus aureus,9 mm
Cc1ccc(Nc2nn3c(-c4ccc(Cl)cc4)ccnc3c2C(N)=O)cc1,pIC50,HepG2,4.14
COc1ccc(Nc2nn3c(O)cc(C)nc3c2C(N)=O)c(OC)c1,Activity,[1],0.5%
NC(=O)c1c(Nc2ccc(Br)cc2)nn2c(-c3ccccc3)ccnc12,inhibition zone (IZ),Escherichia coli,9 mm
same,inhibition zone (IZ),Bacillus subtilis,9 mm
same,inhibition zone (IZ),Pseudomonas aeruginosa,9 mm
COc1ccc(Nc2nn3c(C)cc(C)nc3c2C(=O)Nc2ccc(C)cc2)c(OC)c1,Activity,[1],0.5%
COc1cc(CNc2ccccc2C(=O)N2CCN(C(=O)c3cc(-c4ccc(C)cc4)n4nc(-c5ccccc5)cc4n3)CC2)cc(OC)c1OC,pIC50,HeLa,5.74
Nc1nc2c(/N=N/c3ccc(C(F)(F)F)cc3)c(N)nn2c(N)c1/N=N/c1nccs1,IC50,HepG2,4.1 µg/mL
NC(=O)c1c(Nc2ccc(Cl)cc2)nn2c(-c3ccc(Br)cc3)ccnc12,pIC50,HepG2,4.14
COc1cc(-c2cc(C(=O)N3CCN(C(=O)c4ccccc4NCc4cccc5c4OCO5)CC3)nc3cc(-c4ccccc4)nn23)cc(OC)c1OC,pIC50,HeLa,5.75
COc1ccc(Nc2nn3c(O)cc(-c4ccccc4)nc3c2C(N)=O)c(OC)c1,Activity,[1],0.5%
COc1ccc(Nc2nn3c(-c4cccs4)ccnc3c2C(N)=O)cc1,pIC50,HepG2,4.14
O=C(Nc1ccccc1)c1cnn2c(-c3ccc(Cl)cc3)ccnc12,inhibition zone (IZ),Escherichia coli,10 mm
same,inhibition zone (IZ),Staphylococcus aureus,17 mm
NC(=O)c1c(Nc2ccccc2)nn2c(-c3ccc(Cl)cc3)ccnc12,pIC50,MCF7,4.20
same,inhibition zone (IZ),Bacillus subtilis,9 mm
same,inhibition zone (IZ),Pseudomonas aeruginosa,9 mm
same,pIC50,HepG2,4.06
COc1ccc(-c2ccnc3c(C(=O)Nc4ccccc4)cnn23)cc1,inhibition zone (IZ),Escherichia coli,10 mm
NC(=O)c1c(Nc2ccc(Br)cc2)nn2c3c(cnc12)CCCCCC3,inhibition zone (IZ),Bacillus subtilis,9 mm
same,inhibition zone (IZ),Pseudomonas aeruginosa,9 mm
COc1ccc(Nc2nn3c4c(cnc3c2C(=O)Nc2ccc(Cl)cc2)C(=O)CC(C)(C)C4)cc1,pIC50,HepG2,4.14
COc1ccc(NC(=O)c2c(Nc3ccc(OC)cc3OC)nn3c(-c4ccccc4)cc(-c4ccccc4)nc23)c(OC)c1,Activity,[1],0.5%
COc1ccc(-c2cc(C(=O)N3CCN(C(=O)c4ccccc4NCc4ccco4)CC3)nc3cc(-c4ccccc4)nn23)cc1,pIC50,HeLa,5.76
O=C(c1cc(-c2ccccc2)n2nc(-c3ccccc3)cc2n1)N1CCN(C(=O)c2ccccc2NCc2cccc3c2OCO3)CC1,pIC50,HeLa,5.71
COc1ccc(Nc2nn3c(C)cc(C)nc3c2C(=O)Nc2ccccc2)c(OC)c1,Activity,[1],0.5%
COc1ccc(-c2cc(C(=O)N3CCN(C(=O)c4ccccc4NCc4cc(OC)c(OC)c(OC)c4)CC3)nc3cc(-c4ccccc4)nn23)cc1,pIC50,HeLa,5.72
COc1ccc(Nc2nn3c(-c4ccccc4)cc(-c4ccccc4)nc3c2C(=O)Nc2ccccc2)c(OC)c1,Activity,[1],0.5%
NC(=O)c1c(Nc2ccccc2)nn2c(-c3ccc(Br)cc3)ccnc12,pIC50,MCF7,4.19
same,inhibition zone (IZ),Bacillus subtilis,9 mm
same,pIC50,HepG2,4.12
COC(=O)c1cnc2c(C(=O)Nc3ccccc3)cnn2c1C,inhibition zone (IZ),Staphylococcus aureus,19 mm
Nc1nn2c(-c3ccc(S(=O)(=O)c4ccccc4)cc3)ccnc2c1/N=N/c1ccccc1,inhibition zone (IZ),Bacillus subtilis,26.5 mm
O=C(Nc1ccccc1-c1ccnc2c(C(=O)NCc3ccc(F)cc3)cnn12)c1c(Cl)cc(Cl)cc1Cl,pIC50,HeLa,5.06
COc1ccc(-c2cc(C(=O)N3CCN(C(=O)c4ccccc4NCc4ccco4)CC3)nc3cc(-c4ccccc4)nn23)cc1OC,pIC50,HeLa,5.81
